Assay results taken from US7008905B2, “Method of combating undesired plant growth on cereals” (BASF Aktiengesellschaft, priority 2000, dated 2006).

Legend:
Type in all cases: in vivo
Alopecurus myosuroides = test: Pre-emergence test, weed control; settings: 3 weeks after treatment, rating 0-100 (100=death), Table 3
Method: (§1) The pre-emergence tests involve spraying a liquid formulation of the compound onto the soil in which the seeds of the plant species mentioned above has recently been sown.
(§2) The soil used in the tests is a prepared horticultural loam. The formulations used in the tests are prepared from solutions of the test compounds in acetone containing 0.4% by weight of an alkylphenol/ethylene oxide condensate available under the trade mark TRITON X-155.
(§3) In these tests untreated sown soil is used as control. The herbicidal effects of the test compounds are assessed visually three weeks after spraying the soil and are recorded an a 0 to 100 scale. A rating 0 indicates growth as untreated control, a rating 100 indicates death. An increase of 10 unit an the linear scale approximates to a 10% increase in the level of effect. The results of the assessment are set out in Tables 1 to 4.

Apera spica-venti = test: Pre-emergence test, weed control; settings: 3 weeks after treatment, rating 0-100 (100=death), Table 3
Method: as §1, §2, §3

Galium aparine = test: Pre-emergence test, weed control; settings: 3 weeks after treatment, rating 0-100 (100=death), Table 3
Method: as §1, §2, §3

Lamium purpureum = test: Pre-emergence test, weed control; settings: 3 weeks after treatment, rating 0-100 (100=death), Table 3
Method: as §1, §2, §3

Lolium perenne = test: Pre-emergence test, weed control; settings: 3 weeks after treatment, rating 0-100 (100=death), Table 3
Method: as §1, §2, §3

Matricaria inodora = test: Pre-emergence test, weed control; settings: 3 weeks after treatment, rating 0-100 (100=death), Table 3
Method: as §1, §2, §3

Poa annua = test: Pre-emergence test, weed control; settings: 3 weeks after treatment, rating 0-100 (100=death), Table 3
Method: as §1, §2, §3

Setaria viridis = test: Pre-emergence test, weed control; settings: 3 weeks after treatment, rating 0-100 (100=death), Table 3
Method: as §1, §2, §3

Stellaria media = test: Pre-emergence test, weed control; settings: 3 weeks after treatment, rating 0-100 (100=death), Table 3
Method: as §1, §2, §3

Veronica persica = test: Pre-emergence test, weed control; settings: 3 weeks after treatment, rating 0-100 (100=death), Table 3
Method: as §1, §2, §3

PAPRH = test: Pre-emergence test, weed control; settings: 3 weeks after treatment, rating 0-100 (100=death), Table 3
Method: as §1, §2
as §3, with “These acetone solutions are diluted with water and the resulting formulations applied at dosage levels corresponding to 15 g, 30 g, 60 g, 120 g or 240 g of active material per hectare in a volume equivalent to 900 liters per hectare. In” for “In”

VIOAR = test: Pre-emergence test, weed control; settings: 3 weeks after treatment, rating 0-100 (100=death), Table 3
Method: as §1, §2
as §3, with “These acetone solutions are diluted with water and the resulting formulations applied at dosage levels corresponding to 15 g, 30 g, 60 g, 120 g or 240 g of active material per hectare in a volume equivalent to 900 liters per hectare. In” for “In”

[1] = system: Triticum aestivum variety “Kanzler”; test: Pre-emergence test, selectivity; settings: 3 weeks after treatment, rating 0-100 (100=death), Table 4
Method: as §1, §2
as §3, with “These acetone solutions are diluted with water and the resulting formulations applied at dosage levels corresponding to 15 g, 30 g, 60 g, 120 g or 240 g of active material per hectare in a volume equivalent to 900 liters per hectare. In” for “In”

[2] = system: Triticum aestivum variety “Monopol”; test: Pre-emergence test, selectivity; settings: 3 weeks after treatment, rating 0-100 (100=death), Table 4
Method: as §1, §2
as §3, with “These acetone solutions are diluted with water and the resulting formulations applied at dosage levels corresponding to 15 g, 30 g, 60 g, 120 g or 240 g of active material per hectare in a volume equivalent to 900 liters per hectare. In” for “In”

wheat = test: Pre-emergence test, tolerance in wheat; settings: in vivo
Method: as §1, §2
as §3, with “These acetone solutions are diluted with water and the resulting formulations applied at dosage levels corresponding to 15 g, 30 g, 60 g, 120 g or 240 g of active material per hectare in a volume equivalent to 900 liters per hectare. In” for “In”

Cc1nc(-c2ccc(C(F)(F)F)cc2)nc(Oc2ccnc(Cl)c2)c1C [REF-5]
ALOMY weed control rating (Alopecurus myosuroides; 0.030 kg/ha): 5
ALOMY weed control rating (Alopecurus myosuroides; 0.060 kg/ha): 15
ALOMY weed control rating (Alopecurus myosuroides; 0.120 kg/ha): 30
ALOMY weed control rating (Alopecurus myosuroides; 0.240 kg/ha): 35
APESV weed control rating (Apera spica-venti; 0.030 kg/ha): 100
APESV weed control rating (Apera spica-venti; 0.060 kg/ha): 100
APESV weed control rating (Apera spica-venti; 0.120 kg/ha): 100
APESV weed control rating (Apera spica-venti; 0.240 kg/ha): 100
GALAP weed control rating (Galium aparine; 0.030 kg/ha): 2
GALAP weed control rating (Galium aparine; 0.060 kg/ha): 5
GALAP weed control rating (Galium aparine; 0.120 kg/ha): 50
LAMPU weed control rating (Lamium purpureum; 0.030 kg/ha): 0
LAMPU weed control rating (Lamium purpureum; 0.060 kg/ha): 20
LAMPU weed control rating (Lamium purpureum; 0.120 kg/ha): 55
LAMPU weed control rating (Lamium purpureum; 0.240 kg/ha): 100
LOLPE weed control rating (Lolium perenne; 0.030 kg/ha): 40
LOLPE weed control rating (Lolium perenne; 0.060 kg/ha): 90
LOLPE weed control rating (Lolium perenne; 0.120 kg/ha): 98
LOLPE weed control rating (Lolium perenne; 0.240 kg/ha): 99
MATIN weed control rating (Matricaria inodora; 0.030 kg/ha): 85
MATIN weed control rating (Matricaria inodora; 0.060 kg/ha): 100
MATIN weed control rating (Matricaria inodora; 0.120 kg/ha): 100
MATIN weed control rating (Matricaria inodora; 0.240 kg/ha): 100
POAAN weed control rating (Poa annua; 0.030 kg/ha): 92
POAAN weed control rating (Poa annua; 0.060 kg/ha): 100
POAAN weed control rating (Poa annua; 0.120 kg/ha): 100
POAAN weed control rating (Poa annua; 0.240 kg/ha): 100
SETVI weed control rating (Setaria viridis; 0.030 kg/ha): 20
SETVI weed control rating (Setaria viridis; 0.060 kg/ha): 50
SETVI weed control rating (Setaria viridis; 0.120 kg/ha): 95
SETVI weed control rating (Setaria viridis; 0.240 kg/ha): 100
STEME weed control rating (Stellaria media; 0.030 kg/ha): 10
STEME weed control rating (Stellaria media; 0.060 kg/ha): 25
STEME weed control rating (Stellaria media; 0.120 kg/ha): 35
STEME weed control rating (Stellaria media; 0.240 kg/ha): 70
VERPE weed control rating (Veronica persica; 0.030 kg/ha): 55
VERPE weed control rating (Veronica persica; 0.060 kg/ha): 93
VERPE weed control rating (Veronica persica; 0.120 kg/ha): 95
VERPE weed control rating (Veronica persica; 0.240 kg/ha): 100
PAPRH weed control rating (PAPRH; 0.030 kg/ha): 85
PAPRH weed control rating (PAPRH; 0.060 kg/ha): 95
PAPRH weed control rating (PAPRH; 0.120 kg/ha): 100
PAPRH weed control rating (PAPRH; 0.240 kg/ha): 100
VIOAR weed control rating (VIOAR; 0.030 kg/ha): 96
VIOAR weed control rating (VIOAR; 0.060 kg/ha): 97
VIOAR weed control rating (VIOAR; 0.120 kg/ha): 98
VIOAR weed control rating (VIOAR; 0.240 kg/ha): 99
TRZAWK rating (Selectivity) ([1]; 0.120 kg/ha): 1
TRZAWK rating (Selectivity) ([1]; 0.240 kg/ha): 8
TRZAWM rating (Selectivity) ([2]; 0.120 kg/ha): 1
TRZAWM rating (Selectivity) ([2]; 0.240 kg/ha): 8
maximum tolerated dose in wheat / dose at which sufficiently selective in wheat (wheat): 240 g/ha

COc1cnc(-c2ccc(C(F)(F)F)cc2)nc1Oc1ccnc(Cl)c1 [REF-8]
ALOMY weed control rating (Alopecurus myosuroides; 0.030 kg/ha): 15
ALOMY weed control rating (Alopecurus myosuroides; 0.060 kg/ha): 35
ALOMY weed control rating (Alopecurus myosuroides; 0.120 kg/ha): 70
ALOMY weed control rating (Alopecurus myosuroides; 0.240 kg/ha): 90
APESV weed control rating (Apera spica-venti; 0.030 kg/ha): 100
APESV weed control rating (Apera spica-venti; 0.060 kg/ha): 100
APESV weed control rating (Apera spica-venti; 0.120 kg/ha): 100
APESV weed control rating (Apera spica-venti; 0.240 kg/ha): 100
GALAP weed control rating (Galium aparine; 0.030 kg/ha): 3
GALAP weed control rating (Galium aparine; 0.120 kg/ha): 70
GALAP weed control rating (Galium aparine; 0.240 kg/ha): 70
LAMPU weed control rating (Lamium purpureum; 0.030 kg/ha): 98
LAMPU weed control rating (Lamium purpureum; 0.060 kg/ha): 100
LAMPU weed control rating (Lamium purpureum; 0.120 kg/ha): 100
LAMPU weed control rating (Lamium purpureum; 0.240 kg/ha): 100
LOLPE weed control rating (Lolium perenne; 0.030 kg/ha): 60
LOLPE weed control rating (Lolium perenne; 0.060 kg/ha): 97
LOLPE weed control rating (Lolium perenne; 0.120 kg/ha): 99
LOLPE weed control rating (Lolium perenne; 0.240 kg/ha): 99
MATIN weed control rating (Matricaria inodora; 0.030 kg/ha): 95
MATIN weed control rating (Matricaria inodora; 0.060 kg/ha): 100
MATIN weed control rating (Matricaria inodora; 0.120 kg/ha): 100
MATIN weed control rating (Matricaria inodora; 0.240 kg/ha): 100
POAAN weed control rating (Poa annua; 0.030 kg/ha): 100
POAAN weed control rating (Poa annua; 0.060 kg/ha): 100
POAAN weed control rating (Poa annua; 0.120 kg/ha): 100
POAAN weed control rating (Poa annua; 0.240 kg/ha): 100
SETVI weed control rating (Setaria viridis; 0.030 kg/ha): 60
SETVI weed control rating (Setaria viridis; 0.060 kg/ha): 90
SETVI weed control rating (Setaria viridis; 0.120 kg/ha): 90
SETVI weed control rating (Setaria viridis; 0.240 kg/ha): 100
STEME weed control rating (Stellaria media; 0.030 kg/ha): 35
STEME weed control rating (Stellaria media; 0.060 kg/ha): 85
STEME weed control rating (Stellaria media; 0.120 kg/ha): 100
STEME weed control rating (Stellaria media; 0.240 kg/ha): 100
VERPE weed control rating (Veronica persica; 0.030 kg/ha): 100
VERPE weed control rating (Veronica persica; 0.060 kg/ha): 100
VERPE weed control rating (Veronica persica; 0.120 kg/ha): 100
VERPE weed control rating (Veronica persica; 0.240 kg/ha): 100
PAPRH weed control rating (PAPRH; 0.030 kg/ha): 100
PAPRH weed control rating (PAPRH; 0.060 kg/ha): 100
PAPRH weed control rating (PAPRH; 0.120 kg/ha): 100
PAPRH weed control rating (PAPRH; 0.240 kg/ha): 100
VIOAR weed control rating (VIOAR; 0.030 kg/ha): 99
VIOAR weed control rating (VIOAR; 0.060 kg/ha): 99
VIOAR weed control rating (VIOAR; 0.120 kg/ha): 100
VIOAR weed control rating (VIOAR; 0.240 kg/ha): 100
TRZAWK rating (Selectivity) ([1]; 0.030 kg/ha): 1
TRZAWK rating (Selectivity) ([1]; 0.060 kg/ha): 5
TRZAWK rating (Selectivity) ([1]; 0.120 kg/ha): 12
TRZAWK rating (Selectivity) ([1]; 0.240 kg/ha): 18
TRZAWM rating (Selectivity) ([2]; 0.030 kg/ha): 1
TRZAWM rating (Selectivity) ([2]; 0.060 kg/ha): 3
TRZAWM rating (Selectivity) ([2]; 0.120 kg/ha): 15
TRZAWM rating (Selectivity) ([2]; 0.240 kg/ha): 18
maximum tolerated dose in wheat / dose at which sufficiently selective in wheat (wheat): 120 g/ha
